Results on three molecules are retold here after US20160228056A1, “DYNAMIC POSITRON EMISSION TOMOGRAPHY IMAGING” (THE GENERAL HOSPITAL CORPORATION, priority 2013, published 2016).

The subject of one series is cerebral blood flow. Put plainly: non-human primate hypercapnia experiment with fPET-FDG and ASL CBF. The class given is in vivo, baboon. An excerpt: To assess the influence of cerebral blood flow changes on FDG signal we administered inhaled carbon dioxide, a strong vasodilatory stimulus, to two baboons (2 females, ˜10-12 kg) simultaneously with fPET-FDG and arterial spin labeling (ASL) MRI for CBF measurements. The protocol was approved by the Institutional Animal Care and Use Committee. Animals were anesthetized with isoflurane (1%) and mechanically ventilated. Physiological parameters were continuously monitored and maintained within the normal range. All images were acquired on the same 3T Siemens TIM-Trio with a BrainPET insert as the human data, using a custom PET-compatible 8-channel array coil. Similar to the human protocol, ˜5 mCi of FDG was continuously infused intravenously at a rate of 0.01 mL/sec for each study. PET data were stored in list mode and binned into 1-minute frames. Dual echo pseudo-continuous arterial spin labeling (pCASL) data were acquired simultaneously (TR/TE1/TE2=4000/12/30 ms, 2.2×2.2×4 mm) (Wey et al., 2010). During a 50 minute dynamic fPET/fMRI scan, a hypercapnic challenge (7% CO2) was given for 10 minutes between 30 and 40 minutes. All data were motion and slice-time corrected, skull stripped, spatially smoothed and registered to a standard NHP atlas. Percent changes in gray matter CBF were calculated.

For series [1] the following is noted: cited from earlier work; for K1 (rate constant, transport from blood to brain) / k2 (rate constant, transport back from brain to blood) / k3 (rate constant, phosphorylation in the brain tissue): two-tissue compartment model (Reivich et al., 1985).
Another series has as its system glucose utilization. Put plainly: fPET-FDG constant infusion with checkerboard visual stimulation. Particulars: for mean percent increase in glucose utilization derived from fPET-FDG: fixed-effect group analysis, three subjects. The series is classed as in vivo, human. As to the method: To interrogate dynamic metabolic information, a 90-minute constant FDG infusion paradigm was used (0.01 ml/s, 5 mCi total calculated to the beginning of infusion), during which we periodically presented a conventional visual stimulus consisting of an 8-Hz counterphase flickering “checkerboard” pattern as shown in FIG. 2A. The stimulus was projected on a screen mounted at the end of the magnet bore, and subjects (n=3) viewed the stimulus through a mirror. We used three different stimuli: two full-field checkerboard stimulus periods for a duration of 10 minutes each, and two hemi-field checkerboard stimulus periods (right and left) for a duration of 5 minutes each (FIG. 2A). This design allowed us to confirm that the observed metabolic signal changes were specific to the stimuli, and also that multiple stimuli (four in this case) can be measured dynamically during a single scan of a single subject. In addition to our dynamic analysis, the fPET-FDG data were also binned into 90 one-minute frames using previously published methods (see, Catana et al., J Nucl Med 51, 1431, September, 2010; and Catana et al., J Nucl Med 52, 154, January 2011). During the fPET-FDG scan, functional MR data were simultaneously collected using a Siemens BrainPET scanner. BOLD data were collected prior to and during the first 10 minute full-field checkerboard and the two hemi-field checkerboard stimuli; and ASL data were collected prior to and during the second 10 minute full-field checkerboard stimulus.
FDG was delivered at a constant rate during our fPET studies. At steady state, the rate of FDG utilization in a given voxel is proportional to the slope of the radioactivity accumulated in that voxel. As shown in Example 1 below, during steady state the slope of the voxelwise FDG uptake from fPET can be represented as: slope=(CMRglu*LC*Cp)/Ca^o where LC is the lumped constant which converts FDG metabolic rate to glucose metabolic rate, Ca^o is a measurement of plasma glucose (see, Reivich et al., Circ Res 44, 127, January 1979; and Phelps et al., Ann Neurol 6, 371, November 1979), and Cp is the plasma radioactivity concentration (which is controlled through constant infusion). The slope is an approximation for (K1k3)/(k2+k3) scaled by Cp and is thus analogous to Ki (the influx rate constant) determined by a linear approximation of a bolus FDG injection by Patlak analysis (see, Patlak et al., J Cereb Blood Flow Metab 3, 1, Mar. 1983; and Lucignani et al., J Nucl Med 34, 360, March 1993). Changes in slope are thus proportional to changes in CMRglu. By taking the derivative of the fPET-FDG uptake time course estimated using pairwise subtraction of the 90 one minute frames to form a relative index of uptake rate, we generated a time series akin to a BOLD fMRI signal to represent change in CMRglu. We then used fMRI software, FSL's (FMRIB Software Library) FEAT (see Jenkinson et al., Neuroimage 62, 782, Aug. 15, 2012) to process the fPET-FDG data using a generalized linear model (GLM) with 3 different explanatory variables (EV): (i) 2 blocks of the 10 minutes full-field checkerboard paradigm (EV1), (ii) a 5 minute block of left hemi-field checkerboard (EV2) and (iii) a 5 minute block of right hemi-field checkerboard (EV3). Confirmation of functional specificity is inherent in our analyses given that both hemispheres of the visual system respond equally to the full-field checkerboard whereas the contralateral hemisphere has a higher response to a hemi-field checkerboard. […]

A short description of series [2]: blood radioactivity during the FDG infusion protocol. To be noted: constant infusion. The series is classed as in vivo, human. The procedure: FDG was administered in saline intravenously at a constant infusion rate of 0.01 ml/s for 90 minutes to healthy subjects (1 female/2 males, mean age 32±2) using a Medrad® Spectra Solaris syringe pump. In a separate experiment, FDG was administered as a traditional bolus injection (5 mCi administered in 5 mL saline over ˜30 seconds) during rest for 3 additional healthy subjects (1 female/2 males, mean age 29±3). Venous blood samples were collected in all subjects during scanning, then centrifuged to obtain plasma, and aliquoted in a gamma counter that had been precalibrated to the PET scanner to measure the venous activity during the experiment. The fPET-FDG data were binned into 90 one-minute frames. The reconstructed volume was down-sampled to 76 slices with 128×128 voxels (2.5×2.5×2.5 mm^3) with one minute time frames. For bolus FDG comparison studies, data were processed as a single frame (40-70 minutes post injection) and analogously down-sampled. Standardized Uptake Values (SUVs) were normalized to gray matter uptake for each subject.
FDG in saline solution was administered intravenously at a constant infusion rate of 0.01 ml/s for 90 min to healthy subjects (1 female/2 males, mean age 32±2 years) using a Medrad® Spectra Solaris syringe pump (initial activity=5±0.6 mCi). […]

Setting [3] is: 10 minute full checkerboard, average of 3 subjects, exponential fit.

Entries after “also recorded” stand apart in the source; their conditions may differ.

Take `O=C=O` [carbon dioxide]: the “CBF increase on average” value with cerebral blood flow (gray matter, ASL, 10 minutes of hypercapnia (7% CO2), anesthetized baboon) was found to be 70%. Moreover, the “effect on FDG uptake rate / FDG signal slope” value in the series on cerebral blood flow (hypercapnia (7% CO2) between 30 and 40 minutes of 50 minute FDG infusion, baboon) is “did not alter FDG uptake rate; also recorded: did not induce any measurable change”. In addition, the “CBF change at maximum” value with cerebral blood flow (hypercapnia stimulus (7% CO2), baboon) stood at 120%.

As for `OCC1OC(O)CC(O)C1O` (centres unmarked) [deoxyglucose], in series [1], the “K1 (rate constant, transport from blood to brain)” value is recorded as roughly 0.1 mL/min; the “k2 (rate constant, transport back from brain to blood)” value is roughly 0.15 min⁻¹; the “k3 (rate constant, phosphorylation in the brain tissue)” value was roughly 0.08 min⁻¹.

In the case of 2-[^18F]-fluoro-2-deoxyglucose [FDG], in the series with glucose utilization (setting [3]), the “tau of the exponential decrease in FDG signal after the end of the activation” value stood at 5.6 min and the “tau of the exponential increase in FDG signal after the beginning of the activation” value was 4.9 min. Besides, the “mean percent increase in glucose utilization derived from fPET-FDG” value (“mean percent increase” for short) in the series with glucose utilization (full-field checkerboard vs baseline) is on record as 25%. Besides, in the series on glucose utilization (left hemi-field checkerboard vs baseline), the “mean percent increase” value worked out at 26%. Further, the “mean percent increase” value in the series with glucose utilization (right hemi-field checkerboard vs baseline) came to 28%. The “blood radioactivity during the infusion protocol, maximum” value in series [2] (venous plasma blood) stood at 4 kBq/cc. Besides, the “blood radioactivity during the infusion protocol, average” value in series [2] (whole blood) is recorded as 4 kBq/cc. Further, the extraction fraction in series [1] (brain) is reported as 4%. For the same molecule, in series [1], the “K1 (rate constant, transport from blood to brain)” value is 0.1 mL/min; the “k2 (rate constant, transport back from brain to blood)” value was 0.15 min⁻¹; the “k3 (rate constant, phosphorylation in the brain tissue)” value was 0.08 min⁻¹.
